Experimental data reported in US20240358693A1, “METHODS OF TREATING PAIN” (Aisa Pharma, Inc., priority 2023, published 2024).

System: participants with SSc-RP
Experiment: Average duration of weekly RP attacks (minutes)
Format: in vivo, human
Excerpt: The absolute change in average duration of weekly RP attacks from baseline to the end of each dosing period was and will be a secondary outcome variable. The sponsor-developed participant-informed diary was and will be used to record data. Average duration of weekly RP attacks is defined as the total duration of RP attacks divided by total number of RP attacks within the last 7 days of each dosing period. Total duration of RP attacks during the last 7 days of screening period divided by the total number of RP attacks will be used as baseline for the analysis of all periods. The variable will be calculated similar to frequency data as before.

[1] = Pooled Cilnidipine 20 mg and Cilnidipine 20 mg + Tadalafil 5 mg, Excluding Outliers, by Baseline RCS, subgroup 2, ITT Population - Part A
[2] = Pooled Cilnidipine 20 mg and Cilnidipine 20 mg + Tadalafil 5 mg, ITT Part A
[3] = Pooled Cilnidipine 20 mg and Cilnidipine 20 mg + Tadalafil 5 mg, by Baseline RCS, subgroup 1, ITT Population - Part A
[4] = Pooled Cilnidipine 20 mg and Cilnidipine 20 mg + Tadalafil 5 mg, by Baseline RCS, subgroup 2, ITT Population - Part A
[5] = Pooled Cilnidipine, n=3, Excluding Outliers, ITT Part A
[6] = Pooled Cilnidipine, n=3, ITT Part A
[7] = Pooled Cilnidipine, Baseline RCS subgroup 1 (unnamed), ITT Part A
[8] = Pooled Cilnidipine, Excluding Outliers, Baseline RCS subgroup 1 (unnamed), ITT Part A
[9] = Pooled Cilnidipine, Excluding Outliers, ITT Population - Part A
[10] = Pooled Cilnidipine, Excluding Outliers, by Baseline RCS, subgroup 1, ITT Population - Part A
[11] = Pooled Cilnidipine, by Baseline RCS, subgroup 1, ITT Population - Part A

COCCOC(=O)C1=C(C)NC(C)=C(C(=O)OC/C=C/c2ccccc2)C1c1cccc([N+](=O)[O-])c1 (centres unmarked) [Cilnidipine, cilnidipine]
Average Duration of Weekly RP Attacks (All Attacks) Change from Baseline, Median [1]: -19.09 min
Average Duration of Weekly RP Attacks (All Attacks) Percent Change from Baseline, Mean [1]: −23.33%
Average Duration of Weekly RP Attacks (All Attacks) Percent Change from Baseline, Median [1]: −23.33%
Average Duration of Weekly RP Attacks (All Attacks), Mean [1]: 62.73 min
Average Duration of Weekly RP Attacks (All Attacks), Median [1]: 62.73 min
Average Duration of Weekly RP Attacks (All Attacks) Change from Baseline, Mean [2]: -4.77 min
Average Duration of Weekly RP Attacks (All Attacks) Change from Baseline, Median [2]: -2.73 min
Average Duration of Weekly RP Attacks (All Attacks) Percent Change from Baseline, Mean [2]: −13.86%
Average Duration of Weekly RP Attacks (All Attacks) Percent Change from Baseline, Median [2]: −2.74%
Average Duration of Weekly RP Attacks (All Attacks), Mean [2]: 27.61 min
Average Duration of Weekly RP Attacks (All Attacks), Median [2]: 22.36 min
Average Duration of Weekly RP Attacks (All Attacks) Change from Baseline, Mean [3]: 0.00 min
Average Duration of Weekly RP Attacks (All Attacks) Change from Baseline, Median [3]: 2.16 min
Average Duration of Weekly RP Attacks (All Attacks) Percent Change from Baseline, Mean [3]: −10.70%
Average Duration of Weekly RP Attacks (All Attacks) Percent Change from Baseline, Median [3]: 17.86%
Average Duration of Weekly RP Attacks (All Attacks), Mean [3]: 15.91 min
Average Duration of Weekly RP Attacks (All Attacks), Median [3]: 14.27 min
Average Duration of Weekly RP Attacks (All Attacks) Change from Baseline, Mean [4]: -19.09 min
Average Duration of Weekly RP Attacks (All Attacks) Change from Baseline, Median [4]: -19.09 min
Average Duration of Weekly RP Attacks (All Attacks) Percent Change from Baseline, Mean [4]: −23.33%
Average Duration of Weekly RP Attacks (All Attacks) Percent Change from Baseline, Median [4]: −23.33%
Average Duration of Weekly RP Attacks (All Attacks), Mean [4]: 62.73 min
Average Duration of Weekly RP Attacks (All Attacks), Median [4]: 62.73 min
Duration (Pooled Cilnidipine (n = 7)): 20%
Average Duration of Weekly Symptomatic RP Attacks, Change from Baseline, Mean [5]: -7.67 min
Average Duration of Weekly Symptomatic RP Attacks, Change from Baseline, Median [5]: -10.33 min
Average Duration of Weekly Symptomatic RP Attacks, Mean [5]: 21.70 min
Average Duration of Weekly Symptomatic RP Attacks, Median [5]: 30.45 min
Average Duration of Weekly Symptomatic RP Attacks, Percent Change from Baseline, Mean [5]: −32.23%
Average Duration of Weekly Symptomatic RP Attacks, Percent Change from Baseline, Median [5]: −34.60%
Average Duration of Weekly Symptomatic RP Attacks, Change from Baseline, Mean [6]: -7.67 min
Average Duration of Weekly Symptomatic RP Attacks, Change from Baseline, Median [6]: -10.33 min
Average Duration of Weekly Symptomatic RP Attacks, Mean [6]: 21.70 min
Average Duration of Weekly Symptomatic RP Attacks, Median [6]: 30.45 min
Average Duration of Weekly Symptomatic RP Attacks, Percent Change from Baseline, Mean [6]: −32.23%
Average Duration of Weekly Symptomatic RP Attacks, Percent Change from Baseline, Median [6]: −34.60%
Average Duration of Weekly Symptomatic RP Attacks, Change from Baseline, Mean [7]: -7.67 min
Average Duration of Weekly Symptomatic RP Attacks, Change from Baseline, Median [7]: -10.33 min
Average Duration of Weekly Symptomatic RP Attacks, Mean [7]: 21.70 min
Average Duration of Weekly Symptomatic RP Attacks, Median [7]: 30.45 min
Average Duration of Weekly Symptomatic RP Attacks, Percent Change from Baseline, Mean [7]: −32.23%
Average Duration of Weekly Symptomatic RP Attacks, Percent Change from Baseline, Median [7]: −34.60%
Average Duration of Weekly Symptomatic RP Attacks, Change from Baseline, Mean [8]: -7.67 min
Average Duration of Weekly Symptomatic RP Attacks, Change from Baseline, Median [8]: -10.33 min
Average Duration of Weekly Symptomatic RP Attacks, Mean [8]: 21.70 min
Average Duration of Weekly Symptomatic RP Attacks, Median [8]: 30.45 min
Average Duration of Weekly Symptomatic RP Attacks, Percent Change from Baseline, Mean [8]: −32.23%
Average Duration of Weekly Symptomatic RP Attacks, Percent Change from Baseline, Median [8]: −34.60%
Average Duration of Weekly RP Attacks (All Attacks) Change from Baseline, Mean [9]: -3.55 min
Average Duration of Weekly RP Attacks (All Attacks) Change from Baseline, Median [9]: -7.63 min
Average Duration of Weekly RP Attacks (All Attacks) Percent Change from Baseline, Mean [9]: −23.71%
Average Duration of Weekly RP Attacks (All Attacks) Percent Change from Baseline, Median [9]: −21.20%
Average Duration of Weekly RP Attacks (All Attacks), Mean [9]: 21.66 min
Average Duration of Weekly RP Attacks (All Attacks), Median [9]: 30.45 min
Average Duration of Weekly RP Attacks (All Attacks) Change from Baseline, Mean [10]: -3.55 min
Average Duration of Weekly RP Attacks (All Attacks) Change from Baseline, Median [10]: -7.63 min
Average Duration of Weekly RP Attacks (All Attacks) Percent Change from Baseline, Mean [10]: −23.71%
Average Duration of Weekly RP Attacks (All Attacks) Percent Change from Baseline, Median [10]: −21.20%
Average Duration of Weekly RP Attacks (All Attacks), Mean [10]: 21.66 min
Average Duration of Weekly RP Attacks (All Attacks), Median [10]: 30.45 min
Average Duration of Weekly RP Attacks (All Attacks) Change from Baseline, Mean (Pooled Cilnidipine, ITT Part A): -3.55 min
Average Duration of Weekly RP Attacks (All Attacks) Change from Baseline, Median (Pooled Cilnidipine, ITT Part A): -7.63 min
Average Duration of Weekly RP Attacks (All Attacks) Percent Change from Baseline, Mean (Pooled Cilnidipine, ITT Part A): −23.71%
Average Duration of Weekly RP Attacks (All Attacks) Percent Change from Baseline, Median (Pooled Cilnidipine, ITT Part A): −21.20%
Average Duration of Weekly RP Attacks (All Attacks), Mean (Pooled Cilnidipine, ITT Part A): 21.66 min
Average Duration of Weekly RP Attacks (All Attacks), Median (Pooled Cilnidipine, ITT Part A): 30.45 min
Average Duration of Weekly RP Attacks (All Attacks) Change from Baseline, Mean [11]: -3.55 min
Average Duration of Weekly RP Attacks (All Attacks) Change from Baseline, Median [11]: -7.63 min
Average Duration of Weekly RP Attacks (All Attacks) Percent Change from Baseline, Mean [11]: −23.71%
Average Duration of Weekly RP Attacks (All Attacks) Percent Change from Baseline, Median [11]: −21.20%
Average Duration of Weekly RP Attacks (All Attacks), Mean [11]: 21.66 min
Average Duration of Weekly RP Attacks (All Attacks), Median [11]: 30.45 min
duration of Raynaud attacks, direction of change (cilnidipine or cilnidipine plus tadalafil (n=7), tadalafil monotherapy (n=2)): decrease greater than that seen in placebo treated patients
patients in whom reduction in duration exceeded a 25% threshold (cilnidipine or cilnidipine plus tadalafil treated patients): 4 of 7
